Reference: patent publication US20190059368A1, “3,5-DIMETHOXYSTILBENE ANALOGS AND USES THEREOF” (The United States of America, as represented by the …, priority 2017, published 2019)
Values after ≈ are worked out from the molar mass of the structure shown.

Assays:
[1] = tested on: Cryptococcus neoformans ATCC 90113; assay: Antimicrobial microplate assay (modified CLSI); assay type: cell-based; details: Cr. neoformans
Method: All organisms were obtained from the American Type Culture Collection (ATCC; Manassas, Va., USA) and included the fungi Cryptococcus neoformans ATCC 90113 and the bacteria Staphylococcus aureus ATCC 29213, methicillin-resistant S. aureus ATCC 33591 (MRSA), and Mycobacterium intracellulare ATCC 23068. All organisms were tested using modified versions of the CLSI (formerly NCCLS) methods. For all organisms excluding My. intracellulare, optical density was used to monitor growth. Medium supplemented with 5% AlamarBlue® (BioSource International, Camarillo, Calif., USA) was utilized for growth detection of My. intracellulare. Samples (dissolved in DMSO) were serially diluted in 20% DMSO/saline and transferred (10 μl) in duplicate to 96-well flat-bottom microplates. Inocula were prepared by correcting the OD630 of microbe suspensions in Sabouraud Dextrose for Cr. neoformans, cation-adjusted Mueller-Hinton (Difco) at pH 7.3 for Staphylococcus spp., and 5% AlamarBlue® (BioSource International) in Middlebrook 7H9 broth with OADC enrichment, pH=7.0 for My. intracellulare, to afford an assay volume of 200 μl and final target inocula of: Cr. neoformans.: b 1.5×10^3, My. intracellulare: 2.0×10^6, and Staphylococcus spp.,: 5.0×10^5 CFU/ml. Final sample test concentrations were 1/100th the DMSO stock concentration. Drug controls (Ciprofloxacin (ICN Biomedicals, Ohio, USA) for bacteria and Amphotericin B (ICN Biomedicals) for fungi) were included in each assay. All organisms were read at either 530 nm using the Biotek Powerwave XS plate reader (Bio-Tek Instruments, VT) or 544ex1590em (My. intracellulare) using the Polarstar Galaxy Plate Reader (BMG LabTechnologies, Germany) before and after incubation: Staphylococcus spp. at 35° C. for 16-20 h, Cr. neoformans at 35° C. for 70-74 h, and My. intracellulare at 37° C. and 10% CO2 for 70-74 h. IC50 Values (concentrations that afford 50% inhibition relative to controls) werecalculated using XLfit 4.2 software (IDBS, Alameda, Calif.) using fit model 201.

Colletotrichum acutatum = assay: Direct bioautography, antifungal; assay type: cell-based; details: 2 mM, 4 μl spotted (2 μl of the positive controls), average of 2 assays; for zone of inhibition at 2000 µM: Colletotrichum acutatum, read-out: zones of inhibition
Method: (§1) The analogs were tested for activity against Colletotrichum acutatum SIMMONDS, C. fragariae BROOKS, and C. gloeosporioides (PENZ) PENZ & SACC. in Penz., using a direct bioautography method as previously described by Tabanca et al. (Nat. Prod. Commun. 2008, 3, 1073) and Wang, et al. (J. Agric. Food Chem. 2013, 61, 4551). Technical grade commercial fungicide standards benomyl, cyprodinil, azoxystrobin, and captan were used at 0.9-1.61 μg/μl concentrations in 95% EtOH. After sample application, each TLC plate was subsequently sprayed with a spore suspension (3.0×10^5 spores/ml) of the fungus of interest and incubated in a moisture chamber for 4 days at 26° C. with a 12 hour photoperiod. Clear zones of fungal growth inhibition on the TLC plate indicated the presence of antifungal constituents in each extract or pure compound. The test compounds were prepared at 2 mM soln. in 95% EtOH, and 4 μl were spotted on the plates (2 μl of the positive controls).

C. gloeosporioides = assay: Direct bioautography, antifungal; assay type: cell-based, Colletotrichum gloeosporioides; details: 2 mM, 4 μl spotted (2 μl of the positive controls), average of 2 assays; for zone of inhibition at 2000 µM: Colletotrichum gloeosporioides, read-out: zones of inhibition
Method: as §1

C. fragariae = assay: Direct bioautography, antifungal; assay type: cell-based, Colletotrichum fragariae; details: 2 mM, 4 μl spotted (2 μl of the positive controls), average of 2 assays; for zone of inhibition at 2000 µM: Colletotrichum fragariae, read-out: zones of inhibition
Method: as §1

[2] = tested on: Meloidogyne incognita second-stage juveniles (J2); assay: M. incognita assay with previously hatched J2 immersed in test solutions; details: in vivo
Method: Two types of assays were used to investigate activity against M. incognita: i) eggs were immersed in solutions of the test compounds, and ii) second-stage juveniles (J2) previously hatched from eggs were immersed in the test solutions. These assays were conducted with procedures similar to those in Meyer, et al. (J. Nematol. 2006, 38, 333). M. incognita race 1 (originally isolated in 2013 from a field in Maryland) was grown in the greenhouse on pepper (Capsicum annuum L.) cultivar PA-136. Egg masses were hand-picked from plant roots, rinsed three times with sterile distilled H2O, and agitated in 0.6% NaClO for 3.5 minutes to separate and surface-sterilize eggs. The eggs were rinsed in sterile distilled H2O and stored overnight at 4° C. before use in egg immersion assays. To collect J2 for direct immersion into the test compounds, sterilized eggs were placed into a hatching chamber made with a Spectra/Mesh Nylon Filter (openings 25 μm in diameter; Spectrum Laboratories Inc., Rancho Dominguez, Calif., USA) in an autoclaved dish. J2 that passed through the filter within 3 days were used immediately for assays.
The assays were conducted in 96-well polystyrene plates. For the assays with immersed eggs, each well received approximately 50 eggs in 35 μl of sterile deionized water (SDW). For assays with previously hatched J2, a suspension of approximately 50 J2 in 35 μl of SDW was placed into each well. Each well then received 165 μl of treatment or control. The solvent used to dissolve the test chemicals was a 1:1:1 mixture referred to herein as CTD: equal parts Cremophor® EL Castor Oil (BASF Corporation, Vandalia, Ill., USA), Tween 80® (Sigma-Aldrich, St. Louis, Mo., USA), and DMSO (Sigma-Aldrich). A high and low rate of each compound was tested. After addition to the nematode suspensions in the wells, the low and high rates were 83.3 and 166.7 μg/ml of each test compound, respectively, dissolved in 0.5% and 1.0% of each of the three combined solvents. Controls were CTD equivalent to the low and high rates, and SDW. Because of the large number of treatments, the test compounds were divided into two groups for the egg immersion assays. The compounds tested in the egg immersion Assay 1 were 3, 6a, 6e, 6f, 6g, 6n, 7a, 7c, 7e, 7f, 7n, 11, 12, 16, and 17. The compounds tested in the egg immersion Assay 2 were 6b, 6h, 6i, 6j, 6k, 6l , 7b, 7g, 7h, 7i, 7j, 7k, 7l, and 7m (data not shown). Test compounds used for assays with previously hatched J2 were selected based on results with the egg assays. […]
Each polystyrene culture plate was covered with a plastic adhesive sheet (Excel Scientific, Inc., Victorville, Calif., USA) and incubated at 25° C. […] In egg immersion assays, total numbers of hatched J2, and numbers of mobile and immobile J2, were counted after 2 and 7 days incubation in the test compounds. In the first assay with previously hatched J2, the numbers of mobile and immobile J2 were counted after 1 and 2 days incubation, the treatments removed and replaced with a SDW rinse, and 2 days later the mobile vs. immobile J2 counted again. […]
Data from the M. incognita assays were analyzed with the statistical package JMP 11.2.0 (SAS Institute, Cary, N.C., USA). Differences among numbers of hatched J2 in each treatment, and among percentage of mobile J2 per treatment (number mobile J2/total J2×100), were determined by the ANOVA, and means were compared using Tukey Kramer's adjustment for multiple comparisons (P<0.05). […]

| Compound | zone of inhibition at 2000 µM (Colletotrichum acutatum) | zone of inhibition at 2000 µM (C. gloeosporioides) | zone of inhibition at 2000 µM (C. fragariae) | further results |
| --- | --- | --- | --- | --- |
| C[C@@H]1[C@H](O)[C@@H](C)/C=C/C=C/C=C/C=C/C=C/C=C/C=C/[C@H](O[C@@H]2O[C@H](C)[C@@H](O)[C@H](N)[C@@H]2O)C[C@@H]2O[C@](O)(C[C@@H](O)C[C@@H](O)[C@H](O)CC[C@@H](O)C[C@@H](O)CC(=O)O[C@H]1C)C[C@H](O)[C@H]2C(=O)O [Amphotericin B, reference compound] |  |  |  | IC50 [1]: 698 nM; MIC [1]: 1.353 µM (≈ 1.25 µg/mL) |
| CO/C=C(/C(=O)OC)c1ccccc1Oc1cc(Oc2ccccc2C#N)ncn1 [Azoxystrobin, azoxystrobin] |  |  |  | zones of inhibition (Colletotrichum acutatum): 15 mm; zones of inhibition (C. gloeosporioides): 17.5 mm; zones of inhibition (C. fragariae): 17.5 mm |
| CCCCNC(=O)n1c(NC(=O)OC)nc2ccccc21 [Benomyl, benomyl] | 17 mm | 20 mm | 20 mm |  |
| O=C1C2CC=CCC2C(=O)N1SC(Cl)(Cl)Cl (stereo not drawn) [Captan, captan] | 11.5 mm | 18.5 mm | 18.5 mm |  |
| COc1cccc(/C=C/c2cc(OC)c(C)c(OC)c2)c1 [Compound 6b, (E)-1,3-dimethoxy-5-(3-methoxystyryl)-2-methylbenzene] |  |  |  | effect on mobility of J2 previously hatched in water and immersed directly (in words) [2]: only 6g and 7k had an effect on J2 mobility |
